# Test results reported in US20230227506A1, “Fatty Acid Complexes Of Coronavirus Spike Protein And Their Use” (priority 2020, published 2023).
# Entries after “also recorded” stand apart in the source; their conditions may differ. Like-named read-outs stand apart in the source and are kept apart here.
# What was measured:
# SARS-CoV-2 Spike protein [1] = format: cell-based
# SARS-CoV-2 Spike protein [2] = format: binding
# [3] = cited from earlier work
# [4] = test system: SARS-CoV-2 reporter virus (rSARS-CoV-2/Wuhan/ORF7-tGFP); format: cell-based
# [5] = test system: SARS-CoV-2 S glycoprotein; format: binding
# Caco-2-ACE2 cells = details: 50 uM linoleic acid
# coronaviruses = details: reference (4); cited from earlier work
# [6] = target: T1, SARS-CoV-2 Spike Protein receptor binding domain (RBD) (Severe acute respiratory syndrome coronavirus 2, UniProt P0DTC2)
# T1 construct: SARS-CoV-2 RBD (amino acids R319 to F541); made in house; host or cells: Hi5 insect cells, MultiBac baculovirus
Structure (SMILES),Minivirus-ACE2 cell binding compared to ApoS Miniviruses (SARS-CoV-2 Spike protein [1]),Binding of FFA in Spike protein verified by LC-MS/MS (SARS-CoV-2 Spike protein [2]),Water solubility [3],Water solubility (in words) [3],Water solubility (in words) ([3]; listed as Linoleic Acid),Effect on SARS-CoV-2 replication factories [4],Effect on viral particles [4],Binding to S in the trimer seen by cryo-EM [5],Cell death of treated infected cells (Caco-2-ACE2 cells),Virus replication on exogenous supplement (coronaviruses),Binding to immobilized RBD quantified by SPR [6]
"CCCCCCCCCCCCCCCC(=O)O [PA, palmitic acid]",did not significantly reduce,not,–,–,–,–,–,–,–,–,–
"CCCCC/C=C\C/C=C\CCCCCCCC(=O)O [LA, linoleic acid]",able to reduce,successfully verified,about 100 mg/l,extremely low water solubility,virtually insoluble in water,disrupted; also recorded: wrecked,visible deformation and destruction,tightly binds,significant cell death was not observed,suppressed virus replication,high affinity binding
"CCCCCCCC/C=C\CCCCCCCC(=O)O [OA, oleic acid]",able to reduce,successfully verified,–,–,–,–,–,–,–,–,High affinity binding
"CCCCC/C=C\C/C=C\C/C=C\C/C=C\CCCC(=O)O [AA, arachidonic acid]",able to reduce,–,–,–,–,–,–,–,–,suppressed virus replication,–
